This note sets out measurements from patent publication US20130131043A1, “PYRAZOLE COMPOUNDS AS JAK INHIBITORS” (priority 2010, published 2013).

One assay has as its target T1, JAK2 (Homo sapiens, UniProt O60674).
T1 construct: endogenous in cells; host or cells: Molt4 (ATCC CRL-1582) and Ramos (ATCC CRL-1596) cell lysate; mixed Molt4/Ramos lysate 1:2
The experiment in a line: Kinobeads assay, JAK2 (competition binding in cell lysate, dot blot detection). The settings on record: mixed Molt4/Ramos lysate. How it is done: (§1) The compounds of the present invention as described in the previous examples were tested in a Kinobeads™ assay as described for ZAP-70 (WO-A 2007/137867). Briefly, test compounds (at various concentrations) and the affinity matrix with the immobilized aminopyrido-pyrimidine ligand 24 were added to cell lysate aliquots and allowed to bind to the proteins in the lysate sample. After the incubation time the beads with captured proteins were separated from the lysate. Bound proteins were then eluted and the presence of JAK2 and JAK3 was detected and quantified using specific antibodies in a dot blot procedure and the Odyssey infrared detection system. Dose response curves for individual kinases were generated and IC50 values calculated. Kinobeads™ assays for ZAP-70 (WO-A 2007/137867) and for kinase selectivity profiling (WO-A 2006/134056) have been previously described.
(§2) 5×DP buffer: 250 mM Tris-HCl pH 7.4, 25% Glycerol, 7.5 mM MgCl2, 750 mM NaCl, 5 mM Na3VO4; filter the 5×DP buffer through a 0.22 μm filter and store in aliquots at −80° C. The 5×DP buffer is diluted with H2O to 1×DP buffer containing 1 mM DTT and 25 mM NaF.
(§3) Stock solutions of test compounds were prepared in DMSO. In a 96 well plate 30 μL solution of diluted test compounds at 5 mM in DMSO were prepared. Starting with this solution a 1:3 dilution series (9 steps) was prepared. For control experiments (no test compound) a buffer containing 2% DMSO was used.
(§4) Molt4 cells (ATCC catalogue number CRL-1582) and Ramos cells (ATCC catalogue number CRL-1596) were grown in 1 L Spinner flasks (Integra Biosciences, #182101) in suspension in RPMI 1640 medium (Invitrogen, #21875-034) supplemented with 10% Fetal Bovine Serum (Invitrogen) at a density between 0.15×10^6 and 1.2×10^6 cells/mL. Cells were harvested by centrifugation, washed once with 1×PBS buffer (Invitrogen, #14190-094) and cell pellets were frozen in liquid nitrogen and subsequently stored at −80° C. Cells were homogenized in a Potter S homogenizer in lysis buffer: 50 mM Tris-HCl, 0.8% NP40, 5% glycerol, 150 mM NaCl, 1.5 mM MgCl2, 25 mM NaF, 1 mM sodium vanadate, 1 mM DTT, pH 7.5. One complete EDTA-free tablet (protease inhibitor cocktail, Roche Diagnostics, 1873580) per 25 mL buffer was added. The material was dounced 10 times using a mechanized POTTER S, transferred to 50 mL falcon tubes, incubated for 30 minutes on ice and spun down for 10 minutes at 20,000 g at 4° C. (10,000 rpm in Sorvall SLA600, precooled). The supernatant was transferred to an ultracentrifuge (UZ)-polycarbonate tube (Beckmann, 355654) and spun for 1 hour at 100.000 g at 4° C. (33.500 rpm in Ti50.2, precooled). The supernatant was transferred again to a fresh 50 mL falcon tube, the protein concentration was determined by a Bradford assay (BioRad) and samples containing 50 mg of protein per aliquot were prepared. The samples were immediately used for experiments or frozen in liquid nitrogen and stored frozen at −80° C.
(§5) Cell lysate (approximately 50 mg protein per plate) was thawed in a water bath at room temperature and then stored on ice. To the thawed cell lysate 1×DP 0.8% NP40 buffer containing protease inhibitors (1 tablet for 25 mL buffer; EDTA-free protease inhibitor cocktail; Roche Diagnostics 1873580) was added in order to reach a final protein concentration of 10 mg/mL total protein. The diluted cell lysate was stored on ice. Mixed Molt4/Ramos lysate was prepared by combining one volume of Molt4 lysate and two volumes of Ramos lysate (ratio 1:2).
(§6) Plates were sealed and incubated for 3 hours in a cold room on a plate shaker (Heidolph tiramax 1000) at 750 rpm. Afterwards the plate was washed 3 times with 230 μL washing buffer (1×DP 0.4% NP40). The filter plate was placed on top of a collection plate (Greiner bio-one, PP-microplate 96 well V-shape, 65120) and the beads were then eluted with 20 μL of sample buffer (100 mM Tris, pH 7.4, 4% SDS, 0.00025% bromophenol blue, 20% glycerol, 50 mM DTT). […]

A further assay deals with T2, JAK3 (Homo sapiens, UniProt P52333).
T2 construct: endogenous in cells; host or cells: Molt4 (ATCC CRL-1582) and Ramos (ATCC CRL-1596) cell lysate; mixed Molt4/Ramos lysate 1:2
T2 sequence (P52333 1-1124): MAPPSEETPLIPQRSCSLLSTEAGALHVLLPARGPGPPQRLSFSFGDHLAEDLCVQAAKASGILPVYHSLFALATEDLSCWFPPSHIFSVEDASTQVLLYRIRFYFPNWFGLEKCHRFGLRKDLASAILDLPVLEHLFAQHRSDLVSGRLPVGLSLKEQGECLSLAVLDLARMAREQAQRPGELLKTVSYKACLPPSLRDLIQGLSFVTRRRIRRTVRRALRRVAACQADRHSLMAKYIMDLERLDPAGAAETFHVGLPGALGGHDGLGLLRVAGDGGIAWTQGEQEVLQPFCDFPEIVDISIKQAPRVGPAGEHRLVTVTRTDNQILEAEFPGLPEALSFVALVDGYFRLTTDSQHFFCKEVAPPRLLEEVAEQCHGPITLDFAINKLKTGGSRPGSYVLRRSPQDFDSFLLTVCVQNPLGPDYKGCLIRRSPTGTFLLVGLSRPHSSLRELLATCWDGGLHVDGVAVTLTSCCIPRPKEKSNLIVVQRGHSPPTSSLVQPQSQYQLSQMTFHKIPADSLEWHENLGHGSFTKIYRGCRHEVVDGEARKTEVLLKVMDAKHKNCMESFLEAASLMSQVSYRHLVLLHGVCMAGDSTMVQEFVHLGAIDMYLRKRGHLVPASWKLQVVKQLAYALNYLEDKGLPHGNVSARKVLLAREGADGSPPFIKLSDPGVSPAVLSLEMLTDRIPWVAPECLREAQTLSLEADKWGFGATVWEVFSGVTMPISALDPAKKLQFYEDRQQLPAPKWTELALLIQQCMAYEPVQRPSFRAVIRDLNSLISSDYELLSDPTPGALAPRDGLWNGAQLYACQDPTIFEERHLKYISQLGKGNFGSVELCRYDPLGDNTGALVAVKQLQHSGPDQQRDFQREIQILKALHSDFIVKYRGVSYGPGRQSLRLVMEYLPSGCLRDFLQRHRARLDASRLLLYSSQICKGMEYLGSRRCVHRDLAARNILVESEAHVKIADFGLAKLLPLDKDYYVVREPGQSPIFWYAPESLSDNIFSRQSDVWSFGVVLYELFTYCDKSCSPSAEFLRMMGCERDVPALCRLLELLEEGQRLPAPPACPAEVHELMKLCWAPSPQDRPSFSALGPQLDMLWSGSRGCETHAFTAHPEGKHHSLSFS
The experiment in a line: Kinobeads assay, JAK3 (competition binding in cell lysate, dot blot detection). The settings on record: mixed Molt4/Ramos lysate. How it is done: as §1, §2, §3, §4, §5, §6

pIC50: −log10 of the molar value. Some results are limits rather than exact numbers.

T1 sequence (O60674 whole entry): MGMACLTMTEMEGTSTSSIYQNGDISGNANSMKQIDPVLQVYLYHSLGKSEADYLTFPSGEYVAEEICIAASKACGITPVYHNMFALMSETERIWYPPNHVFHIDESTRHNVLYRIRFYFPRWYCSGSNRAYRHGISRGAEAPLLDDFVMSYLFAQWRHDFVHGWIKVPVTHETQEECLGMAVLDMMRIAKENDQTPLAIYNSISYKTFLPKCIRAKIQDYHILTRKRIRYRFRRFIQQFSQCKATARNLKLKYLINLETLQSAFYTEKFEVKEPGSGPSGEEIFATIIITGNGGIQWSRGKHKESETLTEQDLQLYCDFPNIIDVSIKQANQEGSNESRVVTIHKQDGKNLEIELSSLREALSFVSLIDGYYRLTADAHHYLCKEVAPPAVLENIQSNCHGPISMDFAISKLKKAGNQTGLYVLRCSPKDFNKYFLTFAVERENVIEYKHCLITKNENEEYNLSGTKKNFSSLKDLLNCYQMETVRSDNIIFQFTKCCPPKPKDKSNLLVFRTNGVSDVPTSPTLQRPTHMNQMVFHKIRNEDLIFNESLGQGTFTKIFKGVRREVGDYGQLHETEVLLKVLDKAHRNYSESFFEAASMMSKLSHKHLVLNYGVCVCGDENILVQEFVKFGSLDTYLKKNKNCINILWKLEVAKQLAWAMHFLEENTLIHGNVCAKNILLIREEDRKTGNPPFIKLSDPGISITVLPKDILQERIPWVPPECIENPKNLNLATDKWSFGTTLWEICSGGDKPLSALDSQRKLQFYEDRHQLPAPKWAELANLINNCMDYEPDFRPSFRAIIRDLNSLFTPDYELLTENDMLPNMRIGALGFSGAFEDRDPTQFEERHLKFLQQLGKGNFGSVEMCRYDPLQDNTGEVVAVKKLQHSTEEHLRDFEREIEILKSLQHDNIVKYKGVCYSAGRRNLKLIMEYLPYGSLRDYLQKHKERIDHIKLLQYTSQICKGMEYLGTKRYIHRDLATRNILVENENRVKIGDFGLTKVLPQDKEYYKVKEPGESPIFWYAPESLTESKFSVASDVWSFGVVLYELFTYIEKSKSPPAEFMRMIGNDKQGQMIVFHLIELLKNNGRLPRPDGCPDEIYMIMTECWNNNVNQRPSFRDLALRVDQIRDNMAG

With `CCS(=O)(=O)N1CCCC(Cn2ncc3cnc(Nc4cnn(C)c4)nc32)C1` (centres unmarked) [Example 31, 1-((1-(ethylsulfonyl)piperidin-3-yl)methyl)-N-(1-methyl-1H-pyrazol-4-yl)-1H-pyrazolo[3,4-d]pyrimidin-6-amine], the values for the pIC50 on JAK2 and on JAK3 were 5.00 to 6.00 and over 7.00, respectively.
For the molecule `CC(C)S(=O)(=O)N1CCCC(Cn2ncc3cnc(Nc4cnn(C)c4)nc32)C1` (centres unmarked) [Example 32, 1-((1-(isopropylsulfonyl)piperidin-3-yl)methyl)-N-(1-methyl-1H-pyrazol-4-yl)-1H-pyrazolo[3,4-d]pyrimidin-6-amine], the values for the pIC50 at JAK2 and on JAK3 were 5.00 to 6.00 and over 7.00, respectively.
Taken in the same sequence, the figures for `Cn1cc(Nc2ncc3cnn(CC4CCCN(S(=O)(=O)C5CC5)C4)c3n2)cn1` (centres unmarked) [Example 33, 1-((1-(cyclopropylsulfonyl)piperidin-3-yl)methyl)-N-(1-methyl-1H-pyrazol-4-yl)-1H-pyrazolo[3,4-d]pyrimidin-6-amine] were 5.00 to 6.00 and over 7.00.
Taken in the same sequence, the figures for `Cn1cc(Nc2ncc3cnn(CCC4CCCN(S(C)(=O)=O)C4)c3n2)cn1` (centres unmarked) [Example 34, N-(1-methyl-1H-pyrazol-4-yl)-1-(2-(1-(methylsulfonyl)piperidin-3-yl)ethyl)-1H-pyrazolo[3,4-d]pyrimidin-6-amine] were 5.00 to 6.00 and 6.00 to 7.00.
For `COCCN1CCCC(Cn2ncc3cnc(Nc4cnn(C)c4)nc32)C1` (centres unmarked) [Example 35, 1-((1-(2-methoxyethyl)piperidin-3-yl)methyl)-N-(1-methyl-1H-pyrazol-4-yl)-1H-pyrazolo[3,4-d]pyrimidin-6-amine], the pIC50 – broadly, the IC50 on a negative log10 scale, so that one unit is a factor of ten – at JAK2 is under 5.00; at JAK3 it was over 7.00.
Taken in the same sequence, the figures for `CCOC(=O)N1CCCC(Cn2ncc3cnc(Nc4cnn(C)c4)nc32)C1` (centres unmarked) [Example 36, ethyl 3-((6-((1-methyl-1H-pyrazol-4-yl)amino)-1H-pyrazolo[3,4-d]pyrimidin-1-yl)methyl)piperidine-1-carboxylate] were under 5.00 and 6.00 to 7.00.
Taken in the same sequence, the figures for `CSCCN1CCCC(Cn2ncc3cnc(Nc4cnn(C)c4)nc32)C1` (centres unmarked) [Example 37, N-(1-methyl-1H-pyrazol-4-yl)-1-((1-(2-(methylthio)ethyl)piperidin-3-yl)methyl)-1H-pyrazolo[3,4-d]pyrimidin-6-amine] were under 5.00 and over 7.00.
As for `COC(=O)N1CCCC(Cn2ncc3cnc(Nc4cnn(C)c4)nc32)C1` (centres unmarked) [Example 38, methyl 3-((6-((1-methyl-1H-pyrazol-4-yl)amino)-1H-pyrazolo[3,4-d]pyrimidin-1-yl)methyl)piperidine-1-carboxylate], the pIC50 was under 5.00 on JAK2 and 6.00 to 7.00 at JAK3.
Taken in the same sequence, the figures for `CS(=O)(=O)N1CCCC(Cn2ncc3cnc(Nc4cnn(CCO)c4)nc32)C1` (centres unmarked) [Example 39, 2-(4-((1-((1-(methylsulfonyl)piperidin-3-yl)methyl)-1H-pyrazolo[3,4-d]pyrimidin-6-yl)amino)-1H-pyrazol-1-yl)ethanol] were 5.00 to 6.00 and over 7.00.
Turning to `Cn1cc(Nc2ncc3cnn(CC4CCNC4)c3n2)cn1` (centres unmarked) [Example 40, N-(1-methyl-1H-pyrazol-4-yl)-1-(pyrrolidin-3-ylmethyl)-1H-pyrazolo[3,4-d]pyrimidin-6-amine], the pIC50 on JAK2 is 5.00 to 6.00; on JAK3, 6.00 to 7.00.
Regarding `Cn1cc(Nc2ncc3cnn(CC4CCCN(CCC#N)C4)c3n2)cn1` (centres unmarked) [Example 41, 3-(3-((6-((1-methyl-1H-pyrazol-4-yl)amino)-1H-pyrazolo[3,4-d]pyrimidin-1-yl)methyl)piperidin-1-yl)propanenitrile], the pIC50 was 5.00 to 6.00 at JAK2 and over 7.00 at JAK3.
Taken in the same sequence, the figures for `CCS(=O)(=O)N1CCC(Cn2ncc3cnc(Nc4cnn(C)c4)nc32)C1` (centres unmarked) [Example 42, 1-((1-(ethylsulfonyl)pyrrolidin-3-yl)methyl)-N-(1-methyl-1H-pyrazol-4-yl)-1H-pyrazolo[3,4-d]pyrimidin-6-amine] were under 5.00 and 6.00 to 7.00.
For `Cn1cc(Nc2ncc3cnn(CC4CCN(S(=O)(=O)C5CC5)C4)c3n2)cn1` (centres unmarked) [Example 43, 1-((1-(cyclopropylsulfonyl)pyrrolidin-3-yl)methyl)-N-(1-methyl-1H-pyrazol-4-yl)-1H-pyrazolo[3,4-d]pyrimidin-6-amine], in that order: under 5.00 and 6.00 to 7.00.
Taken in the same sequence, the figures for `Cn1cc(Nc2ncc3cnn(CC4CCCN(C(=O)OCCF)C4)c3n2)cn1` (centres unmarked) [Example 44, 2-fluoroethyl 3-((6-((1-methyl-1H-pyrazol-4-yl)amino)-1H-pyrazolo[3,4-d]pyrimidin-1-yl)methyl)piperidine-1-carboxylate] were under 5.00 and 6.00 to 7.00.
For `COCCOC(=O)N1CCCC(Cn2ncc3cnc(Nc4cnn(C)c4)nc32)C1` (centres unmarked) [Example 45, 2-methoxyethyl 3-((6-((1-methyl-1H-pyrazol-4-yl)amino)-1H-pyrazolo[3,4-d]pyrimidin-1-yl)methyl)piperidine-1-carboxylate], the figures for the pIC50 on JAK2 and on JAK3 were under 5.00 and 6.00 to 7.00, respectively.
For `Cn1cc(Nc2ncc3cnn(CC4CCCN(CCS(C)(=O)=O)C4)c3n2)cn1` (centres unmarked) [Example 46, N-(1-methyl-1H-pyrazol-4-yl)-1-((1-(2-(methylsulfonyl)ethyl)piperidin-3-yl)methyl)-1H-pyrazolo[3,4-d]pyrimidin-6-amine], in that order: 5.00 to 6.00 and over 7.00.
